Test results from patent publication US20110236395A1, “TREATMENT OF FIBROTIC EYE DISORDERS USING AN MMP2 INHIBITOR” (UNIVERSITY OF EAST ANGLIA, priority 2008, published 2011).

Experiments:
[1] = system: HLE-B3; conditions: HLE-B3 cell line; cited from earlier work
[2] = system: excised rat lenses; conditions: concentrations typically micromolar; cited from earlier work
[3] = system: FHL 124 cells; test: Patch contraction assay (TGF-β-induced matrix contraction); assay type: cell-based, human
Protocol: FIG. 2. […] FHL 124 cells were seeded to form patches, maintained in serum-free medium before exposure to experimental conditions. All cultures were maintained for 72 hours in 5% EMEM (Eagle's minimal essential medium) alone or 5% FCS (fetal calf serum) EMEM supplemented with 10 ng/mL TGF-β1 or -β2±the MMP inhibitor GM6001 (25 μM). (A) Visual representations of patch assay cultures in different experimental conditions. (B) Quantified data showing differences in patch area. (C) Data showing differences in cell populations between patch areas (Coomassie blue dye was extracted and quantified from the same experiment as presented in (B)). In FIGS. 2(B) and (C) each left hand bar of the bar pairs reports the result in the absence of GM6001 (indicated as “−GM6001” in the key) and the right hand bar reports the result in the presence of GM6001 (indicated as “+GM6001” in the key). Data represent mean±SEM. * Indicates a significant difference from unstimulated control cells. # Indicates a significant difference between siMMP2 treated cells and SCR siRNA counterparts (p≦0.05, ANOVA with the Tukey test).
FIG. 6. MMP2 is important for TGF-β-induced matrix contraction. FHL 124 cells were seeded to form patches, then transfected with siRNA targeted to MMP2 or SCR negative control and maintained in Optimem™ (Invitrogen Corporation; Optimem is a modified EMEM, buffered with HEPES and sodium bicarbonate and supplemented with hypoxanthine, thymidine, sodium pyruvate, L-glutamine or Glutamax, trace elements and growth factor; the protein level is minimal (15 μg/mL) with insulin and transferrin being the only protein supplements; phenol red is included as a pH indicator). Patches were measured after 72 hours of culture with 10 ng/mL TGF-β1 or […]. (A) Visual representations of patch assay cultures in different experimental conditions. (B) Quantified data showing differences in patch area. (C) Data showing differences in cell populations between patch areas (Coomassie blue dye was extracted and quantified from the same experiment as presented in (B)). In FIGS. 6(B) and (C) each left hand bar of the bar pairs reports the result with Scramble siRNA (indicated as “Scramble SiRNA” in the key) and the right hand bar reports the result in the presence of MMP2 specific siRNA (indicated as “MMP2 SiRNA” in the key). The data in (B) and (C) represent the mean±SEM (n≦4). *Indicates a significant difference from unstimulated control cells. # Indicates a significant difference between siMMP2 treated cells and SCR siRNA counterparts (p≦0.05, ANOVA with the Tukey test).
FIG. 7. MMP2 inhibition using neutralising antibody ([…]) prevents TGF-β2 (10 ng/ml)-induced matrix contraction assessed by patch assay. In FIG. 7(B) each left hand bar of the bar pairs reports the result in the absence of the antibody (indicated as “−4 μg/ml Anti MMP2” in the key) and the right hand bar reports the result in the presence of the antibody (indicated as “+4 μg/ml Anti MMP2” in the key). Data expressed as Mean±SEM (n=3).
FHL 124 cells were seeded at four sites on a tissue culture dish at 5000 cells in 25 μl and maintained in EMEM supplemented with 5% FCS until confluent regions spanning about 5 mm developed (Wormstone et al, Exp. Eye Res. (2004), 78, pages 705-14). The medium was then replaced with non-supplemented EMEM, and the cells were cultured for a further 24 hours, followed by the removal of medium from four patch culture dishes fixed for 30 minutes with 4% formaldehyde at room temperature, followed by washing in PBS. The patches were used as a t=0 reference control.
All remaining cell cultures were exposed to experimental conditions for up to 3 days. Experiments were terminated after the appearance of cell-free regions (holes) within the central region of the patch, by fixation for 30 minutes with 4% formaldehyde at room temperature. […]

[4] = system: posterior capsule / capsular bag; conditions: in the absence of TGF-β; cited from earlier work
[5] = system: MMP2 gene expression in FHL 124 cells; test: Quantitative real-time PCR of MMP2 gene expression after siRNA transfection; assay type: cell-based, human; conditions: 100 nM siRNA
Protocol: FIG. 4. Validation of siRNA directed against specific inhibition of MMP2 for 24 hours using targeted siRNA techniques leads to a greater than 90% reduction in MMP2 gene expression. Furthermore, after 48 hours from initial MMP2 SiRNA transfection, MMP2 gene expression levels are still reduced by more than 80% in comparison with Scramble SiRNA controls. Each left hand bar of the bar pairs reports the result with Scramble siRNA (indicated as “Scramble SiRNA” in the key) and the right hand bar reports the result in the presence of MMP2 specific siRNA (indicated as “MMP2 SiRNA” in the key).
Total RNA was extracted from tissue and primary cultured cells (RNeasy micro kits; Qiagen, West Sussex, UK) in accordance with the manufacturer's instructions. In the initial step, RLT buffer (containing-mercaptoethanol) was added directly to phosphate buffered saline (PBS)-washed culture monolayers. Cultured cell lysates were removed with a cell scraper. Each sample was then transferred to an individual Eppendorf tube and passed through a needle and syringe. The remainder of the protocol was as described by the manufacturer and included a DNAse step. Quality control was maintained with an RNA analyzer (Bioanalyzer 2100; Agilent, West Lothian, UK) and an RNA lab chip (6000 Nano lab chip; Agilent) to ensure that 28S and 18S rRNA bands were clearly evident in total RNA samples. RNA was quantified with a spectrophotometer (ND-1000; NanoDrop, Wilmington, Del., USA). For the samples analyzed, the 260:280 ratio ranged from 1.8 to 2.2 (mean, 2.0). Where possible, total RNA was immediately used for cDNA generation or was briefly stored at −80° C. […]
Quantitative real-time PCR was used to analyze mRNA expression for all genes in FHL 124 cells (for a comprehensive description of MMPs and TIMPs primer/probe sets used, see Nuttall R. K. et al. (Mol Cancer Res (2003) 1, pages 333-345. Assuming 100% efficiency in the reverse transcription reaction, either 1 ng or 5 ng cDNA was used in real-time PCR reactions performed using a real-time PCR machine (ABI7700; Applied Biosystems). Reagent-based assays (Taq-Man Universal PCR Master Mix, No AmpErase UNG; Applied Biosystems) with all PCR reagents were used according to the manufacturer's instructions. The amount of amplification associated with priming from genomic DNA contamination was evaluated with control reverse transcription reactions containing all reagents without reverse transcriptase. […] The cycle number at which amplification entered the exponential phase (cycle threshold [CT]) was determined, and this number was used as an indicator for the amount of target RNA in each sample analyzed. […]

[6] = system: MMP2; test: Gelatin zymography of MMP2 protein expression after siRNA transfection; assay type: cell-based, human; conditions: over a 72 hour period, zymography of culture media
Protocol: FIG. 5. SiMMP2 suppresses MMP2 protein expression. […] However, throughout this period the MMP2 level in the siMMP2 treated cells is about 50% of the siRNA control cells (SCR). In FIG. 5A each left hand bar of the bar pairs reports the result with Scramble siRNA (indicated as “Scramble SiRNA” in the key) and the right hand bar reports the result in the presence of MMP2 specific siRNA (indicated as “MMP2 SiRNA” in the key).
Gelatinolytic activity of culture media was analyzed by electrophoresis under non-reducing conditions on a 7% SDS-polyacrylamide gel containing 0.5 mg/mL denatured collagen type I (gelatin; Sigma) as previously described by Gavrilovic J. et al. (Cell Regul. (1990) 1, pages 1003-14). After electrophoresis, gels were washed twice in 2.5% Triton-X 100 for 15 minutes and then incubated for 4 hours at 37° C. in 100 mM Tris-HCl (pH 7.9), 30 mM CaCl2, and 0.02% sodium azide. The gels were stained with Coomassie brilliant blue (Sigma), and the images were captured with a gel scanner.
Custom made MMP2 siRNA: sense 5′-[…]-3′ (SEQ. ID. NO: 1), antisense 5′-[…]-3′ (SEQ. ID. NO: 2) and siRNA negative control (universal scrambled siRNA) were used. Both siRNAs were purchased from Ambion Ltd. (Huntingdon, UK). FHL 124 cells were seeded onto 35-mm culture dishes at either 25,000 cells in 1.5 ml for protein extraction or as four patches of 5000 cells, for patch assay analysis. […]

[7] = 25 μM GM6001 in presence of 10 ng/ml TGF-β1 or TGF-β2, 72 hours
[8] = siMMP2 transfected, 10 ng/ml TGF-β1 or TGF-β2, 72 hours

O=C(O)[C@@H](Cc1ccccc1)NS(=O)(=O)c1ccc(-c2ccccc2)cc1 [(2R)-2-[(4-biphenylylsulphonyl)amino]-3-phenylpropionic acid]
TGF-β1-induced morphological change in the cells [1]: blocked

O=C(NO)[C@@H](Cc1ccccc1)NS(=O)(=O)c1ccc(-c2ccccc2)cc1 [(2R)-[(4-biphenylylsulfonyl)amino]-N-hydroxyl-3-phenylpropionamide]
occurrence of TGF-β-induced anterior subcapsular cataracts (ASCs) [2]: prevents the occurrence

CNC(=O)[C@H](Cc1c[nH]c2ccccc12)NC(=O)[C@@H](CC(=O)NO)CC(C)C [GM6001, N-[(2R)-2-(hydroxamidocarbonylmethyl)-4-methylpentanoyl]-L-trypto-phan methylamide]
effect on patch area relative to control ([3]; 25 μM GM6001 alone (no TGF-β), 72 hours, vs control 5% FCS EMEM group): no significant effect on patch area
formation of cell free zones [3, 7]: suppressed the formation of cell free zones
patch area vs un-stimulated control group [3, 7]: did not significantly differ from the un-stimulated control group
TGF-β-induced matrix contraction ([3]; GM6001 25 μM, 10 ng/mL TGF-β1 or -β2, 72 hours (FIG. 2 legend)): prevents TGF-β-induced matrix contraction
total protein content by Coomassie blue dye extraction (cell population) ([3]; patches ± 10 ng/ml TGF-β1 or -β2 ± GM6001, 72 hours): no significant changes
capsular bag contraction [4]: suppress consequent capsular bag contraction
cell migration onto the posterior capsule surface [4]: suppress cell migration onto the posterior capsule surface
occurrence of TGF-β-induced anterior subcapsular cataracts (ASCs) [2]: prevents the occurrence

siMMP2: Custom made MMP2 siRNA: sense 5′-GGACACACUAAAGAAGAUGTT-3′, antisense 5′-CAUCUUCUUUAGUGUGUCCTT-3′, purchased from Ambion (chemistry not given here)
TGF-β-induced contraction [3, 8]: did not show any evidence of contraction
patch area vs non-TGF-β-treated controls [3, 8]: did not differ significantly from non-TGF-β-treated controls
patch area vs SCR control ([3]; siRNA transfected, non-stimulated conditions (no TGF-β)): did not show a statistical difference in patch area from the SCR control
reduction in MMP2 gene expression ([5]; 24 hours in transfection conditions, vs negative control siRNA): greater than 90%
reduction in MMP2 gene expression ([5]; 24 hours in transfection conditions, vs negative control siRNA, listed as siRNA against MMP2): 90%
reduction in MMP2 gene expression ([5]; 48 hours from transfection, vs Scramble siRNA controls): more than 80%
reduction in MMP2 gene expression ([5]; 48 hours from transfection, vs Scramble siRNA controls, listed as siRNA against MMP2): > 70%
MMP2 protein level relative to Scrambled siRNA control [6]: about 50%
MMP2 protein level relative to Scrambled siRNA control ([6]; listed as siRNA against MMP2): approximately 50%
